Results on four molecules are retold here after US10744084B2, “Non-specific delayed-type hypersensitivity response to treat herpes simplex virus infection” (Squarex, LLC, priority 2007, dated 2020).

For assay [1], the system named is herpes simplex virus type 1. Kind of assay: Treatment of an individual with frequent and severe cold sores: DNCB solution applied at the site of the HSV lesion on the lower lip. Type of assay: in vivo, human. An excerpt:
The individual treated was one of the inventors. They are a person and was […] at the time of this treatment. The subject suffered from frequent cold sores on the lower lip. The outbreaks typically lasted 7-10 days and frequently longer. The subject had suffered from frequent cold sores most of their life. During the 6 months prior to this treatment, the outbreaks had been almost continuous. After getting over one outbreak, the next outbreak would begin often within a week.
In the morning they washed it off. A mild erythema in the area of the cold sore developed over 2-3 days and lasted a further 5 days, and the cold sore resolved in about 7 days, which was a typical duration for this individual or a slightly shorter duration than normal. […] Each outbreak would begin and completely resolve in one day. […] We think this may be because the immune system was recognizing not just the DNCB but also the herpes virus antigens with this second application. With the greater inflammation, the cold sore outbreak was worse than any of the outbreaks between the first and second DNCB treatments. […] The outbreak seemed to worsen as the inflammation associated with the DTH response worsened, and only lessened when the DTH response subsided.
When the outbreak subsided, the subject went another 6 months without any outbreaks to the present time.
For several months before and for the entire time described herein after the initial DNCB treatment, the subject took no antiviral medicines.

Assay [2] can be described thus: Presensitization and dose finding: DNCB solution in acetone applied to spots on the forearm, DTH rash/erythema observed. Type of assay: in vivo, human. To be noted: for erythema on forearm: sensitized subject. An excerpt:
The subject then applied a 0.1%, 0.2%, and 0.3% solutions to separate small spots on the forearm.

For the next assay, the system named is herpes labialis. As to the kind of experiment: Treatment of herpes labialis by squaric acid dibutyl ester (thirty patients, subject diaries). Type of assay: in vivo, human. To be noted: sensitizing dose 2% SADBE in DMSO, then two treatments on lesions in the next two outbreaks. On the procedure: Thirty patients are recruited meeting the following criteria:
In a screening interview, vital signs are recorded, and information is collected on any medications the patient is currently taking, previous and current treatments for cold sores, severity and duration of cold sores.
Upon entering the study, patients are sensitized to squaric acid dibutyl ester (SADBE) by dipping a cotton-tipped swab in a 2% solution of SADBE in DMSO and swabbing a 1 cm^2 area on the forearm. Participants are told then to wait at least 2 weeks for their first treatment.
Throughout the study, the participants are asked to maintain a subject diary, in which they record each day any symptoms they experience, including fever, swelling, pain, redness, itching, burning, the size of any lesions, and any medications taken.
After the 2-week period to allow development of sensitivity to SADBE, upon the beginning of his or her next outbreak (within 72 hours of the first signs of an outbreak), each participant is swabbed at the site of the herpes labialis lesion with a 0.5% solution of SADBE in DMSO.
Upon the next distinct outbreak at least 2 weeks after the previous treatment at visit 2, study diaries are collected. If the diary reflects redness, blistering, or burning greater than 0.5 cm beyond the clinical lesion with the previous SADBE treatment, the dosage of SADBE is decreased to 0.1%. […]

Assay [3] relates to peripheral blood mononuclear cells. Kind of assay: PBMC proliferation assay with stimulation by heat inactivated KOS HSV-1 particles. Format: cell-based, human. The settings on record: after treatment compared with before treatment; killed KOS HSV-1 particles. An excerpt:
At visit 1, before applying SADBE, a blood sample is collected from each patient for use in a peripheral blood mononuclear cell (PBMC) proliferation assay to test immune response to herpes virus.
Two months after visit 2 (the first treatment application of SADBE to an HSV lesion) if the patient has not experienced a recurrence outbreak after visit 2, or one month after visit 3 (the treatment application of SADBE to a lesion of a second outbreak), a blood sample is collected from the patient. The first, pretreatment, blood sample and the second, posttreatment, blood sample are used to conduct PBMC proliferation assays to test immune response to herpes virus before and after treatment.
Venous blood is collected in heparinized test tubes for mononuclear cell isolation prior to treatment and after treatment at the times described above. […]
KOS HSV-1 virus (American Type Culture Collection) is grown in culture in VERO cells and collected. […] The titer of the virus stock is determined. […]
Results are calculated by averaging optical density of the wells in each of the groups. A stimulation index is calculated to reflect the proliferation in the wells stimulated by killed HSV as compared to the positive and negative controls. The average optical absorbance of the positive controls is set as a stimulation index (SI) value of 100 and the average absorbance of the negative controls as a SI value of 0.

Another assay relates to warts. The settings on record: intralesional injection together with antigens; differences not statistically significant; cited from earlier work.
Setting [4] is: first treatment, 0.2% DNCB on lower lip.
The mark [5] stands for this setting: second treatment, 0.2% DNCB on lower lip.
The mark [6] stands for this setting: third treatment, 0.1% DNCB solution.

As for `O=[N+]([O-])c1ccc(Cl)c([N+](=O)[O-])c1` [DNCB, 1-chloro-2,4-dinitrobenzene], the “severity and duration of subsequent outbreaks compared with before” value in assay [1] (4 weeks after first treatment with 0.2% DNCB) was “much less severe and of much shorter duration than before”. Moreover, the “erythema in the area of the cold sore” value in assay [1] (first treatment, 0.2% DNCB in acetone on lower lip, left on overnight) is recorded as “mild erythema”. In addition, in assay [1] (setting [4]), the “further duration of erythema” value came to 5 days, the “time over which erythema developed” value was 2 to 3 days and the “time to resolution of the treated cold sore” value is reported as “about 7 days”. This molecule also yielded a time without outbreaks in assay [1] (following second DNCB treatment at the site of a lesion) of 6 months. This molecule showed a time without outbreaks in assay [1] (following third treatment (0.1% DNCB), to the present time) of 6 months. The “frequency of subsequent outbreaks” value in assay [1] (next 4 weeks after first treatment with 0.2% DNCB) is given as “approximately weekly”. Moreover, in assay [1] (setting [5]), the “duration of the treated outbreak” value is “about 7 days” and the “severity of the treated outbreak” value is on record as “as severe or even slightly more severe than a typical outbreak”. In assay [1] (second treatment, 0.2% DNCB on lower lip, about two months after the first), the “inflammation and erythema with the application” value is given as “more severe than they had been with the first application”. Further, in assay [1] (setting [6]), the “DTH response at the cold sore” value is given as “moderate DTH response” and the “duration of the treated outbreak” value is “about 10 days”. For the same molecule, the erythema on forearm entry in assay [2] (0.1% DNCB solution) is recorded as “almost no erythema”. Besides, the erythema on forearm entry in assay [2] (0.2% DNCB solution) is “mild but easily seen erythema”. In addition, the “rash on forearm after presensitizing application” value in assay [2] (2% DNCB in acetone, first application, two spots on forearm) was “No rash developed”. The “duration of rash on forearm” value in assay [2] (2% DNCB, second application two weeks after sensitizing dose) is reported as 3 weeks. In assay [2] (2% DNCB, two weeks after sensitizing dose, different spots on forearm), the “rash on forearm after second application” value was “very strong but localized rash”.

On to `CCCCOc1c(OCCCC)c(=O)c1=O` [SADBE, squaric acid dibutyl ester], for which, in the assay with herpes labialis, the “duration of outbreaks compared with before treatment” value was “last for less time” and the “number of outbreaks compared with before treatment” value was “fewer outbreaks than before treatment”. Besides, the “stimulation index of PBMC” value in assay [3] was “increased after treatment”.

With “GM-CSF: granulocyte monocyte colony stimulating factor, cytokine used as immune response enhancer”, the “fraction of patients responding to treatment compared with antigen alone” value in the assay with warts is “larger fraction”.

For interferon alpha, the “fraction of patients responding to treatment compared with antigen alone” value with warts is reported as “larger fraction”.
